Data published in PubChem BioAssay AID330 (DTP/NCI, 2004).
Several values for one entry are separate records, joined by “and”; a condition that tells them apart may be missing. Equal entries are not always repeated. Inconclusive results and toxic doses are left out.

Tested on: P388 leukemia ip, CD2F1 mice, survival T/C
Test: NCI In Vivo Anticancer Drug Screen. Data for tumor model P388 Leukemia (intraperitoneal) in CD2F1 (CDF1) mice
Conditions: endpoint: median survival time, higher = longer survival
Method in brief: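 Mice carrying the transplanted tumor received test compound or vehicle. Survival was recorded in each group, and the value is the treated-group measurement divided by that of the vehicle-treated control group.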

[1] = dose: 50.0 mg/kg/injection, schedule: Q01DX009 (ip), vehicle: Klucel (hydroxypropylcellulose) (HPC)
[2] = dose: 100.0 mg/kg/injection, schedule: Q01DX009 (ip), vehicle: Klucel (hydroxypropylcellulose) (HPC)
[3] = dose: 200.0 mg/kg/injection, schedule: Q01DX009 (ip), vehicle: Klucel (hydroxypropylcellulose) (HPC)
[4] = dose: 60.0 mg/kg/injection, schedule: Q01DX005 (ip), vehicle: Klucel (hydroxypropylcellulose) (HPC)
[5] = dose: 120.0 mg/kg/injection, schedule: Q01DX005 (ip), vehicle: Klucel (hydroxypropylcellulose) (HPC)
[6] = dose: 5.0 mg/kg/injection, schedule: Q01DX009 (ip), vehicle: distilled water + Tween-80
[7] = dose: 10.0 mg/kg/injection, schedule: Q01DX009 (ip), vehicle: distilled water + Tween-80
[8] = dose: 20.0 mg/kg/injection, schedule: Q01DX009 (ip), vehicle: distilled water + Tween-80

`CCN1C(=O)C(=O)c2ccccc21` was tested, and the T/C (dose: 18.75 mg/kg/injection, schedule: Q01DX009 (ip), vehicle: saline with Tween-80) was 96 % of control, the T/C (dose: 18.75 mg/kg/injection, schedule: Q01DX009 (ip), vehicle: saline) was 107 % of control and the T/C (dose: 37.5 mg/kg/injection, schedule: Q01DX009 (ip), vehicle: saline with Tween-80) was 96 % of control. For the same compound, the T/C (dose: 37.5 mg/kg/injection, schedule: Q01DX009 (ip), vehicle: saline) was 102 % of control and 110 % of control, the T/C (dose: 75.0 mg/kg/injection, schedule: Q01DX009 (ip), vehicle: saline with Tween-80) was 100 % of control and the T/C (dose: 75.0 mg/kg/injection, schedule: Q01DX009 (ip), vehicle: saline) was 104 % of control and 105 % of control.

For `Brc1ccc(Oc2ccc(Br)cc2)cc1`, the T/C [1] was 100 % of control, the T/C [2] was 98 % of control and the T/C [3] was 92 % of control.

For `c1ccc(C2=C(c3ccccc3)C3SC4CCCC3C4(N3CCOCC3)S2)cc1` (stereo not given), the T/C (dose: 100.0 mg/kg/injection, schedule: Q01DX001 (ip), vehicle: Klucel (hydroxypropylcellulose) (HPC)) was 95 % of control, the T/C (dose: 200.0 mg/kg/injection, schedule: Q01DX001 (ip), vehicle: Klucel (hydroxypropylcellulose) (HPC)) was 99 % of control and the T/C (dose: 400.0 mg/kg/injection, schedule: Q01DX001 (ip), vehicle: Klucel (hydroxypropylcellulose) (HPC)) was 93 % of control.

With `COC(=O)c1nc(=S)[nH]c(C(=O)OC)c1C(=O)c1ccc(N2CCN(c3ccc(C(=O)c4c(C(=O)OC)nc(=S)[nH]c4C(=O)OC)cc3)CC2)cc1` the T/C (dose: 60.0 mg/kg/injection, schedule: Q01DX005 (ip), vehicle: suspension in saline) was 99 % of control, the T/C (dose: 120.0 mg/kg/injection, schedule: Q01DX005 (ip), vehicle: suspension in saline) was 97 % of control and the T/C (dose: 240.0 mg/kg/injection, schedule: Q01DX005 (ip), vehicle: suspension in saline) was 100 % of control.

`CCCC[As](CCCC)SC1CCC2(C)C(=CCC3C4CCC(=O)C4(C)CCC32)C1` (stereo not given) was tested, and the T/C (dose: 12.5 mg/kg/injection, schedule: Q01DX009 (ip), vehicle: distilled water + Tween-80) was 98 % of control, the T/C (dose: 25.0 mg/kg/injection, schedule: Q01DX009 (ip), vehicle: distilled water + Tween-80) was 98 % of control and the T/C (dose: 50.0 mg/kg/injection, schedule: Q01DX009 (ip), vehicle: distilled water + Tween-80) was 92 % of control. For the same compound, the T/C (dose: 100.0 mg/kg/injection, schedule: Q01DX009 (ip), vehicle: distilled water + Tween-80) was 89 % of control and the T/C (dose: 200.0 mg/kg/injection, schedule: Q01DX009 (ip), vehicle: distilled water + Tween-80) was 107 % of control.

`CC1(C)COC2(CC3(C)CC(=O)CC3(C)C2)OC1` (stereo not given) was tested, and the T/C (dose: 50.0 mg/kg/injection, schedule: Q01DX009 (ip), vehicle: saline with Tween-80) was 105 % of control, the T/C (dose: 100.0 mg/kg/injection, schedule: Q01DX009 (ip), vehicle: saline with Tween-80) was 90 % of control and the T/C (dose: 200.0 mg/kg/injection, schedule: Q01DX009 (ip), vehicle: saline with Tween-80) was 102 % of control.

With `CC(=O)NN1C(=O)Cc2ccccc2C1C(N)=O` (stereo not given) the T/C [1] was 103 % of control, the T/C [2] was 111 % of control and the T/C [3] was 103 % of control.

With `Oc1cccc(N2CCN(c3cccc(O)c3)CC2)c1` the T/C [4] was 91 % of control and the T/C [5] was 89 % of control.

For `Cc1nc(N)[nH]c(=O)c1CCCC#N`, the T/C [4] was 105 % of control and the T/C [5] was 108 % of control.

With `O=C1C2CCc3cnn(-c4ccccc4)c3C2C(=O)N1c1ccccc1` (stereo not given) the T/C (dose: 50.0 mg/kg/injection, schedule: Q01DX005 (ip), vehicle: saline with Tween-80) was 101 % of control, the T/C (dose: 100.0 mg/kg/injection, schedule: Q01DX005 (ip), vehicle: saline with Tween-80) was 99 % of control and the T/C (dose: 200.0 mg/kg/injection, schedule: Q01DX005 (ip), vehicle: saline with Tween-80) was 94 % of control.

`OC1OCC2CC3c4cc5c(cc4CCN3CC21)OCO5` (stereo not given) was tested, and the T/C (dose: 0.63 mg/kg/injection, schedule: Q01DX009 (ip), vehicle: distilled water + Tween-80) was 103 % of control, the T/C (dose: 1.25 mg/kg/injection, schedule: Q01DX009 (ip), vehicle: distilled water + Tween-80) was 109 % of control and the T/C (dose: 2.5 mg/kg/injection, schedule: Q01DX009 (ip), vehicle: distilled water + Tween-80) was 108 % of control. For the same compound, the T/C [6] was 100 % of control, the T/C [7] was 103 % of control and the T/C [8] was 103 % of control.

For `CCOCCOC(=O)c1nn(-c2ccc(Cl)cc2)c2c1C(=O)c1ccccc1C2=O`, the T/C (dose: 50.0 mg/kg/injection, schedule: Q01DX005 (ip), vehicle: Klucel (hydroxypropylcellulose) (HPC)) was 94 % of control, the T/C (dose: 100.0 mg/kg/injection, schedule: Q01DX005 (ip), vehicle: Klucel (hydroxypropylcellulose) (HPC)) was 100 % of control and the T/C (dose: 200.0 mg/kg/injection, schedule: Q01DX005 (ip), vehicle: Klucel (hydroxypropylcellulose) (HPC)) was 101 % of control.

With `O=C1c2ccccc2C(=O)c2c(NCCNCCO)ccc(O)c21` the T/C (dose: 1.25 mg/kg/injection, schedule: Q01DX009 (ip), vehicle: acid diluted with saline) was 118 % of control and 122 % of control, the T/C (dose: 2.5 mg/kg/injection, schedule: Q01DX009 (ip), vehicle: acid diluted with saline) was 216 % of control and the T/C (dose: 3.12 mg/kg/injection, schedule: Q04DX002 (ip), vehicle: water) was 110 % of control. The T/C (dose: 5.0 mg/kg/injection, schedule: Q01DX005 (ip), vehicle: saline) was 258 % of control, the T/C (dose: 5.0 mg/kg/injection, schedule: Q01DX005 (iv), vehicle: saline) was 119 % of control and the T/C (dose: 5.0 mg/kg/injection, schedule: Q01DX009 (ip), vehicle: acid diluted with saline) was 274 % of control. The T/C [6] was 177 % of control, the T/C (dose: 6.25 mg/kg/injection, schedule: Q04DX002 (ip), vehicle: other) was 120 % of control and the T/C (dose: 10.0 mg/kg/injection, schedule: Q01DX001 (iv), vehicle: saline) was 108 % of control. For the same compound, the T/C (dose: 10.0 mg/kg/injection, schedule: Q01DX005 (ip), vehicle: saline) was 276 % of control, the T/C (dose: 10.0 mg/kg/injection, schedule: Q01DX005 (iv), vehicle: saline) was 151 % of control and the T/C (dose: 10.0 mg/kg/injection, schedule: Q01DX009 (ip), vehicle: acid diluted with saline) was 436 % of control. The T/C [7] was 247 % of control, the T/C (dose: 10.0 mg/kg/injection, schedule: Q04DX003 (ip), vehicle: saline) was 185 % of control and the T/C (dose: 10.0 mg/kg/injection, schedule: Q04DX003 (iv), vehicle: saline) was 116 % of control. For the same compound, the T/C (dose: 19.4 mg/kg/injection, schedule: Q04DX003 (ip), vehicle: saline) was 259 % of control, the T/C (dose: 20.0 mg/kg/injection, schedule: Q01DX001 (ip), vehicle: saline) was 190 % of control and the T/C (dose: 20.0 mg/kg/injection, schedule: Q01DX001 (iv), vehicle: saline) was 116 % of control. The T/C (dose: 20.0 mg/kg/injection, schedule: Q01DX005 (ip), vehicle: saline) was 312 % of control, the T/C (dose: 20.0 mg/kg/injection, schedule: Q01DX005 (iv), vehicle: saline) was 177 % of control and the T/C (dose: 20.0 mg/kg/injection, schedule: Q01DX009 (ip), vehicle: acid diluted with saline) was 158 % of control. For the same compound, the T/C [8] was 211 % of control, the T/C (dose: 20.0 mg/kg/injection, schedule: Q04DX003 (ip), vehicle: saline) was 214 % of control and the T/C (dose: 25.0 mg/kg/injection, schedule: Q04DX002 (ip), vehicle: other) was 116 % of control. For the same compound, the T/C (dose: 25.0 mg/kg/injection, schedule: Q04DX002 (ip), vehicle: water) was 198 % of control, the T/C (dose: 32.4 mg/kg/injection, schedule: Q04DX003 (ip), vehicle: saline) was 211 % of control and the T/C (dose: 40.0 mg/kg/injection, schedule: Q01DX001 (ip), vehicle: saline) was 205 % of control. For the same compound, the T/C (dose: 40.0 mg/kg/injection, schedule: Q01DX009 (ip), vehicle: acid diluted with saline) was 150 % of control and 163 % of control, the T/C (dose: 40.0 mg/kg/injection, schedule: Q04DX003 (ip), vehicle: saline) was 223 % of control and the T/C (dose: 50.0 mg/kg/injection, schedule: Q04DX002 (ip), vehicle: other) was 103 % of control. The T/C (dose: 50.0 mg/kg/injection, schedule: Q04DX002 (ip), vehicle: water) was 261 % of control, the T/C (dose: 80.0 mg/kg/injection, schedule: Q01DX001 (ip), vehicle: saline) was 178 % of control and the T/C (dose: 100.0 mg/kg/injection, schedule: Q04DX002 (ip), vehicle: water) was 157 % of control and 161 % of control. For the same compound, the T/C (dose: 200.0 mg/kg/injection, schedule: Q04DX002 (ip), vehicle: water) was 188 % of control.

For `CCn1c(=O)c2[nH]c(Cl)nc2n(CCCl)c1=O`, the T/C (dose: 16.0 mg/kg/injection, schedule: Q01DX009 (ip), vehicle: Klucel (hydroxypropylcellulose) (HPC)) was 102 % of control and 118 % of control, the T/C (dose: 32.0 mg/kg/injection, schedule: Q01DX009 (ip), vehicle: Klucel (hydroxypropylcellulose) (HPC)) was 111 % of control and 117 % of control and the T/C (dose: 64.0 mg/kg/injection, schedule: Q01DX009 (ip), vehicle: Klucel (hydroxypropylcellulose) (HPC)) was 122 % of control. For the same compound, the T/C (dose: 128.0 mg/kg/injection, schedule: Q01DX009 (ip), vehicle: Klucel (hydroxypropylcellulose) (HPC)) was 110 % of control.
